{"source": "patent US20020072474A1", "about": "“Herbicidal compositions” (priority 2000, published 2002)", "key": {"AVEFA (Avena fatua)": {"system": "AVEFA (Avena fatua)", "assay": "Activity against grass weeds, post-emergence spray in pots in controlled-environment cabinet, visual scoring", "format": "in vivo", "settings": "mesosulfuron-methyl 60 g a.i./ha (Silwet L77 50 g a.i./ha, sodium lactate 150 g a.i./ha where present); sprayed four weeks after sowing, water 300 l/ha; visual scoring 14 days after application, 0% = no damage to 100% = all plants dead", "protocol": "(§1) The individual components herbicide, surfactant and humectant as stated in Table 1 with regard to the application rates were added with stirring to a water application rate of 300 I/ha so that a homogeneous spray mixture was formed. The herbicide employed was mesosulfuron-methyl as 20 percent water-dispersible powder. The surfactant used was Silwet®L77 (Wacker) and the humectant used was sodium lactate as 50 percent aqueous solution (Merck KGaA, Darmstadt). Seeds of the harmful plants AVEFA and LOLMU were sown in a sandy loam soil in round pots type 13 in a controlled-environment cabinet and watered slightly. During the entire experiment period, the substrate only received minimal irrigation. A daytime temperature of 18° C. and a night time temperature of 16° C. were adhered to, a uniform day length of 16 hours being achieved by additional illumination with sodium vapor lamps (approx. 7000 lux). The relative atmospheric humidity was 50%. Four weeks after sowing, the plants were treated on a laboratory spray conveyor with the spray mixture which had been prepared in accordance with Example 1. The water application rate for the spray application of the preparations was 300 I/ha. After the treatment, the plants were returned to the controlled-environment cabinet. […]"}, "[1]": {"system": "LOLMU (Lolium multiflorum)", "assay": "Activity against grass weeds, post-emergence spray in pots in controlled-environment cabinet, visual scoring", "format": "in vivo", "settings": "mesosulfuron-methyl 60 g a.i./ha (Silwet L77 50 g a.i./ha, sodium lactate 150 g a.i./ha where present); sprayed four weeks after sowing, water 300 l/ha; visual scoring 14 days after application, 0% = no damage to 100% = all plants dead", "protocol": "as §1"}}}
{"smiles": "COC(=O)c1ccc(CNS(C)(=O)=O)cc1S(=O)(=O)NC(=O)Nc1nc(OC)cc(OC)n1", "note": "[Mesosulfuron, mesosulfuron-methyl]", "values": [{"measurement": "Damage in % AVEFA", "setting": "AVEFA (Avena fatua)", "result": 22, "unit": "%"}, {"measurement": "Damage in % LOLMU", "setting": "[1]", "result": 18, "unit": "%"}]}
